Results on 20 compounds are retold here after ChEMBL document CHEMBL5291721, “A preclinical secondary pharmacology resource illuminates target-adverse drug reaction associations of marketed drugs” (Nat Commun, 2023).

Test [1] addresses T1, Androgen receptor (Rattus norvegicus, UniProt P15207).
T1 sequence (P15207 whole entry): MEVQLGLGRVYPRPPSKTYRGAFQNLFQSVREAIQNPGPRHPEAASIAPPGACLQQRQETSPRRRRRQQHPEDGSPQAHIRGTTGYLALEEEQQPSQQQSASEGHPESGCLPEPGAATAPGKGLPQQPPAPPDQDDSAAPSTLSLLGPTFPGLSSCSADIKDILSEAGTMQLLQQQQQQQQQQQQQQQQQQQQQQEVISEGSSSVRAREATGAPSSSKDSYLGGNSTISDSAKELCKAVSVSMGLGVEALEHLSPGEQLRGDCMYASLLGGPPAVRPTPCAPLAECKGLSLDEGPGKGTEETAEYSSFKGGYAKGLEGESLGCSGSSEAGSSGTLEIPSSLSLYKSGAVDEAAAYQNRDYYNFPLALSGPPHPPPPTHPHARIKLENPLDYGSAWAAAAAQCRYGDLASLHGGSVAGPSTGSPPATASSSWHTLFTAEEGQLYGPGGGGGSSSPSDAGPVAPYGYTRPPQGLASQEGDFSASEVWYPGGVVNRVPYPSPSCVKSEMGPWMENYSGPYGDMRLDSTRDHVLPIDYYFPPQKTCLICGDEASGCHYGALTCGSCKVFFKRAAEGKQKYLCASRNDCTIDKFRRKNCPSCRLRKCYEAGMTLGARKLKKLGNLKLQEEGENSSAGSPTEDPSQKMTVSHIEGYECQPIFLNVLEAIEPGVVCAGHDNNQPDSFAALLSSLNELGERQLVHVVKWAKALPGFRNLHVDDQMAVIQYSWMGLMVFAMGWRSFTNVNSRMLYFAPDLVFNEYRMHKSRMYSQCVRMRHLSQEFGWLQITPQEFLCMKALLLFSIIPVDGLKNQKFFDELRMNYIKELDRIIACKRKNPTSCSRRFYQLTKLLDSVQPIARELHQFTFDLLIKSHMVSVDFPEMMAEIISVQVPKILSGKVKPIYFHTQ
Type of test: functional.

Test [2] has as its target Sodium channel protein type 5 subunit alpha (Homo sapiens, UniProt Q14524). The test is classed as functional, cell-based.
The target of test [3] is T2, Progesterone receptor (Homo sapiens, UniProt P06401).
T2 sequence (P06401 whole entry): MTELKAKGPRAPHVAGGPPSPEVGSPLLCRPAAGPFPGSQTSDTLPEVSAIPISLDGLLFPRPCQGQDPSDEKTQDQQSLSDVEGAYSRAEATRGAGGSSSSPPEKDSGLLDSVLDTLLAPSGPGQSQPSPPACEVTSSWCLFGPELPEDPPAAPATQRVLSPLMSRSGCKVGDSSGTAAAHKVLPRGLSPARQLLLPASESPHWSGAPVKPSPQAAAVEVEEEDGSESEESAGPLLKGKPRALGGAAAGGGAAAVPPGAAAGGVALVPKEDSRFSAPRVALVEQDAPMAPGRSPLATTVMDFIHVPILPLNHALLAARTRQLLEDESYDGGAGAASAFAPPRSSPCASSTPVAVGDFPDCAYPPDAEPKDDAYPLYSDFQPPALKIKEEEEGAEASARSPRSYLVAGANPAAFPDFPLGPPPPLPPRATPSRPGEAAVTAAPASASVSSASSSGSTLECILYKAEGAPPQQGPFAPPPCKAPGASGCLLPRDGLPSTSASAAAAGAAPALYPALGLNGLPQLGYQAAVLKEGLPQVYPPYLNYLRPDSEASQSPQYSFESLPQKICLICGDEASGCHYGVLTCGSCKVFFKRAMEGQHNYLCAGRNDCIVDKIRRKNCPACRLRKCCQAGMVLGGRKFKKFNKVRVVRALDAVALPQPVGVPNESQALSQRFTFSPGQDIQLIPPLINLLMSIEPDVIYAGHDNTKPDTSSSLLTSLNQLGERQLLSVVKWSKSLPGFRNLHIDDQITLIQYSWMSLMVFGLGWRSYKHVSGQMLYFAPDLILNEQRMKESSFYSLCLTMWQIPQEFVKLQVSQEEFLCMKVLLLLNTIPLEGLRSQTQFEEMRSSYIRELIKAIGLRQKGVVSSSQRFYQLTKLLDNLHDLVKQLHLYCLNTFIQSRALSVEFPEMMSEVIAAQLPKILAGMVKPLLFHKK

The target of test [4] is T3, Muscarinic acetylcholine receptor M2 (Homo sapiens, UniProt P08172).
T3 sequence (P08172 whole entry): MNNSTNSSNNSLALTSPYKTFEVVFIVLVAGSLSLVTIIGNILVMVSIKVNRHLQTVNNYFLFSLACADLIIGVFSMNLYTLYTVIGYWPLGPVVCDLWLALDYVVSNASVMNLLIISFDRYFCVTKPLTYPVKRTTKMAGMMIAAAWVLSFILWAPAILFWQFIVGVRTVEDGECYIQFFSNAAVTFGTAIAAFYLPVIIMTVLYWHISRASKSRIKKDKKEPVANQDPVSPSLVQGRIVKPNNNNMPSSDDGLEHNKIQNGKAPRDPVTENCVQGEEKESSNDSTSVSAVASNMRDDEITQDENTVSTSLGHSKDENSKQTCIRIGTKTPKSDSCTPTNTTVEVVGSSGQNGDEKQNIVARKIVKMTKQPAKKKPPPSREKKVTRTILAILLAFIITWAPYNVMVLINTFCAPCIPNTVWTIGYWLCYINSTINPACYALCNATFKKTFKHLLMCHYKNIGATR

For test [5], the target named is Histamine H2 receptor (Homo sapiens, UniProt P25021).
Chain of Histamine H2 receptor (P25021 whole entry): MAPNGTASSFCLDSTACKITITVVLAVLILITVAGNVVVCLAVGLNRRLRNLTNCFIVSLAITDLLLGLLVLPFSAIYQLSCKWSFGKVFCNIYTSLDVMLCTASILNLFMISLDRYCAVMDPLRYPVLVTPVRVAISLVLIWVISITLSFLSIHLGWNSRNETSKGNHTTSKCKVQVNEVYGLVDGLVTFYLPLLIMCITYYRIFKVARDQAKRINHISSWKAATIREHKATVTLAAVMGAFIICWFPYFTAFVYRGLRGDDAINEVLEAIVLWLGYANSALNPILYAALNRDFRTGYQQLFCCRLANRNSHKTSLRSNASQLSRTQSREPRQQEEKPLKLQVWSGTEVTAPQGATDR
For test [6], the target named is T4, B1 bradykinin receptor (Homo sapiens, UniProt P46663).
T4 sequence (P46663 whole entry): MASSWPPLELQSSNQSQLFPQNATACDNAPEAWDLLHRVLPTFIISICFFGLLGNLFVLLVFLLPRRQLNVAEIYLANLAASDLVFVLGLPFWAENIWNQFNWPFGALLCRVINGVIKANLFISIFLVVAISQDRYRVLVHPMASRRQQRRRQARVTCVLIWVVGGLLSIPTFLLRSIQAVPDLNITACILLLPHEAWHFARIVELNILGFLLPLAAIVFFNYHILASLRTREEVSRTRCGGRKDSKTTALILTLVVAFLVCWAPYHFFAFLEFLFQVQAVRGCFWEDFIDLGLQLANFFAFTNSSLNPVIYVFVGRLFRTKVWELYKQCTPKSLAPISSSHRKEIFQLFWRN

The structures appear in SMILES notation.
Also: assay procedure not described here.

Chain of Sodium channel protein type 5 subunit alpha (Q14524 whole entry): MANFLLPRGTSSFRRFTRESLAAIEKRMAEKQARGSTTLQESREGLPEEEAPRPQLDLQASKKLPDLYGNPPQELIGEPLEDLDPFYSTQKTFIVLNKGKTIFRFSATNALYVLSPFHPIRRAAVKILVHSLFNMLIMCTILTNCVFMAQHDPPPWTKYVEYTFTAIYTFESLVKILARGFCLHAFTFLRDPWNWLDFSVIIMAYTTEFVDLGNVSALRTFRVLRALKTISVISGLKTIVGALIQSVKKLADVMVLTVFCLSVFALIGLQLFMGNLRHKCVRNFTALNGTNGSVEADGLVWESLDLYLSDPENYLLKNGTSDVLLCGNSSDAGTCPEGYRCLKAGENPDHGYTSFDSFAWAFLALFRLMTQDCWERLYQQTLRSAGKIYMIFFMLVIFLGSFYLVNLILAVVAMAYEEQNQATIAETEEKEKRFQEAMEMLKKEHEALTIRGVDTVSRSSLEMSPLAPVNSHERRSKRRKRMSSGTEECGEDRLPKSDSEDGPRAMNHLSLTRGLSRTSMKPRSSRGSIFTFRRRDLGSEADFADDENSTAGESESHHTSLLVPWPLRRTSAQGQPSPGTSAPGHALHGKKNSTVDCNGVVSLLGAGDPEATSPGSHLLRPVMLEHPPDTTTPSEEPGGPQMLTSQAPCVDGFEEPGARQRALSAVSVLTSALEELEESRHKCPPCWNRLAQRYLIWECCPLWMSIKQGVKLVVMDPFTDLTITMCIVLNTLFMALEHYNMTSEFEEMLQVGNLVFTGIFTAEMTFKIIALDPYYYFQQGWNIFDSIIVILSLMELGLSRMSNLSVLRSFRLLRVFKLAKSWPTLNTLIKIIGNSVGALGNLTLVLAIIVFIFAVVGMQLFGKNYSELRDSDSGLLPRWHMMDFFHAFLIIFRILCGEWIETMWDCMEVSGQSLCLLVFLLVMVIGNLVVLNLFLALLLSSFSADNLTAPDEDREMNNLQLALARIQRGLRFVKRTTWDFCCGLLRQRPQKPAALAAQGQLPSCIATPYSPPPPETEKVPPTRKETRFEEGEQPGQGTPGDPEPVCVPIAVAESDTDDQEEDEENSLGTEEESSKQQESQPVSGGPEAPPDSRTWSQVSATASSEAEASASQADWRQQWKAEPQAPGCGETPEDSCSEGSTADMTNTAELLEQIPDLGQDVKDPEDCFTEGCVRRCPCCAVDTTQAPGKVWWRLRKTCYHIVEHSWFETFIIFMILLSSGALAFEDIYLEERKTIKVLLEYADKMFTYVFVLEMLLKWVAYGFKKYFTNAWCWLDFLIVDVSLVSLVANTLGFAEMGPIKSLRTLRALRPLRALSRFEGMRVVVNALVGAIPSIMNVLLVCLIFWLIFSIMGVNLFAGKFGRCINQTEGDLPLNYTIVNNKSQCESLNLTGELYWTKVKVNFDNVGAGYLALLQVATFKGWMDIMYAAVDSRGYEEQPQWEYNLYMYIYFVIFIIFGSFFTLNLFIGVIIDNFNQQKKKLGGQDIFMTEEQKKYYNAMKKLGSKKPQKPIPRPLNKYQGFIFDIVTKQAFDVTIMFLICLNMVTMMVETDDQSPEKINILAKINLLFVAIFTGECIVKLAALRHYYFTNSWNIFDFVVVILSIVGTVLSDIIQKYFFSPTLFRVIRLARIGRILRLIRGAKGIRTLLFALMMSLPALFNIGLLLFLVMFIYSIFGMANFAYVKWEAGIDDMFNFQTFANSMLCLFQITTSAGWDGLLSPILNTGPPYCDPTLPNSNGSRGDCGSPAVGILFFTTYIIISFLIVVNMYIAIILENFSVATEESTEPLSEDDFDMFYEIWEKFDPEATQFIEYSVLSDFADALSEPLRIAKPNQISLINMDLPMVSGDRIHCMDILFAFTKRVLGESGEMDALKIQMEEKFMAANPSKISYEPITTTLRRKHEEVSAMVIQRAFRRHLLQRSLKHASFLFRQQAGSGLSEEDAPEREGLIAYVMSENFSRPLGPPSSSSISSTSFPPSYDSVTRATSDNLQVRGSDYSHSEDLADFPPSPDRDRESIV

The term AC50 denotes the concentration giving half of the maximal activity seen. The low end stands for activity at low concentration, the high end for activity only at high concentration. With `C[N+](C)(C)CCOP(=O)([O-])OC[C@H](O)CO`, the AC50 in test [1] is over 30 µM.

Consider `CN(C)C/C=C/C(=O)Nc1cc2c(Nc3ccc(F)c(Cl)c3)ncnc2cc1O[C@H]1CCOC1` [AFATINIB], for which the values for the AC50 in test [1] and in test [2] were over 30 µM and over 50 µM, respectively.

Take `CCC1(c2ccc(N)cc2)CCC(=O)NC1=O` (stereo not drawn) [AMINOGLUTETHIMIDE]: the concentration at half-maximal activity (AC50) in test [1] is over 30 µM.

In test [2], `CC1=C(C(=O)OC(C)C)C(c2cccc([N+](=O)[O-])c2)C(C(=O)OC2CN(C(c3ccccc3)c3ccccc3)C2)=C(N)N1` (stereo not drawn) [AZELNIDIPINE] returned a concentration at half-maximal activity (AC50) of over 50 µM.

In the case of `O=C(/C=C/c1cccc(S(=O)(=O)Nc2ccccc2)c1)NO` [BELINOSTAT], the half-maximal activity concentration (AC50) in test [3] is over 30 µM; in test [4], over 10 µM; in test [5] it was over 10 µM; in test [6], over 10 µM.

As for `CC(O)(CS(=O)(=O)c1ccc(F)cc1)C(=O)Nc1ccc(C#N)c(C(F)(F)F)c1` (stereo not drawn) [BICALUTAMIDE], the concentration at half-maximal activity (AC50) in test [3] was over 30 µM; in test [4], over 10 µM; in test [2] it was over 30 µM; in test [5] it was over 10 µM; in test [6], over 30 µM.

Consider `O=C(O)COCCN1CCN(C(c2ccccc2)c2ccc(Cl)cc2)CC1` (stereo not drawn) [CETIRIZINE], for which the concentration at half-maximal activity (AC50) in test [3], in test [2] and in test [6] was over 30 µM each time.

Take `C[C@H](CCC(=O)O)[C@H]1CC[C@H]2[C@@H]3[C@H](O)C[C@@H]4C[C@H](O)CC[C@]4(C)[C@H]3C[C@H](O)[C@]12C` [CHOLIC ACID]: the AC50 in test [2] is over 50 µM.

Regarding `CC(=O)O[C@]1(C(C)=O)CC[C@H]2[C@@H]3C=C(Cl)C4=CC(=O)[C@@H]5C[C@@H]5[C@]4(C)[C@H]3CC[C@@]21C` [CYPROTERONE ACETATE], the AC50 in test [4] and in test [5] was over 10 µM in each case.

For the compound `C[C@@H]1C[C@H]2[C@@H]3C[C@H](F)C4=CC(=O)C=C[C@]4(C)[C@@]3(F)[C@@H](O)C[C@]2(C)[C@@]1(OC(=O)c1ccco1)C(=O)SCF` [FLUTICASONE FUROATE], the half-maximal activity concentration (AC50) in test [4], in test [5] and in test [6] was over 10 µM in each case.

In test [1], `CNCCc1ccc(OC(=O)C(C)C)c(OC(=O)C(C)C)c1` [IBOPAMINE] displayed an AC50 of over 30 µM.

As for `CN(C)CCCN1c2ccccc2CCc2ccccc21` [IMIPRAMINE], the concentration at half-maximal activity (AC50) in test [3] is over 30 µM; in test [4], 0.454 µM; in test [5] it was 0.0697 µM; in test [6] it was over 30 µM.

For the compound `CCOC(=O)C1=C(C)NC(C)=C(C(=O)OCC)C1c1ccccc1/C=C/C(=O)OC(C)(C)C` [LACIDIPINE], the AC50 is over 30 µM in test [1] and over 50 µM in test [2].

`CN(Cc1cnc2nc(N)nc(N)c2n1)c1ccc(C(=O)N[C@@H](CCC(=O)O)C(=O)O)cc1` [METHOTREXATE]: the AC50 in test [3] is over 30 µM; in test [4], over 10 µM; in test [5], over 10 µM; in test [6], over 30 µM.

Compound `Cc1cccc(C)c1NC(=O)CC12CCCN1CCC2` [PILSICAINIDE] registered an AC50 in test [2] of over 50 µM.

For the compound `CN[C@@H](C)[C@@H](O)c1ccccc1` [PSEUDOEPHEDRINE], the concentration at half-maximal activity (AC50) was over 30 µM in test [3], over 10 µM in test [4], over 10 µM in test [5] and over 30 µM in test [6].

`CCCN1CC(NS(=O)(=O)N(CC)CC)CC2Cc3c(O)cccc3CC21` (stereo not drawn) [QUINAGOLIDE] came in with a half-maximal activity concentration (AC50) in test [1] of over 30 µM.

Consider `O=C1OC(OC(=O)c2cccnc2Nc2cccc(C(F)(F)F)c2)c2ccccc21` (stereo not drawn) [TALNIFLUMATE], for which, in test [1], the concentration at half-maximal activity (AC50) is over 30 µM.

For `O=S1(=O)CCN(CN2CCS(=O)(=O)NC2)CN1` [TAUROLIDINE], the AC50 in test [1] is over 30 µM.

In test [1], `CCOC(=O)c1c(CSc2ccccc2)n(C)c2cc(Br)c(O)c(CN(C)C)c12` [UMIFENOVIR] had an AC50 of over 30 µM.
